According to patent US9249129B2, “Morpholino substituted urea derivatives as mTOR inhibitors” (CELLZOME LIMITED, priority 2010, dated 2016):

Tests used:
Experiment in all cases: kinobeads assay with mass spectrometry detection of kinases (kinase selectivity profile)
Type in all cases: binding
kinases (kinome) [1] = molecular target: T1, kinases (kinome) (Homo sapiens, UniProt Q99683); conditions: MAP3K5 (STE), IPI00412433
T1 construct: determined in kinobeads assays with mass spectrometry detection of kinases as described previously; endogenous in cells; host or cells: cell lysate
T1 sequence (Q99683 1-1374): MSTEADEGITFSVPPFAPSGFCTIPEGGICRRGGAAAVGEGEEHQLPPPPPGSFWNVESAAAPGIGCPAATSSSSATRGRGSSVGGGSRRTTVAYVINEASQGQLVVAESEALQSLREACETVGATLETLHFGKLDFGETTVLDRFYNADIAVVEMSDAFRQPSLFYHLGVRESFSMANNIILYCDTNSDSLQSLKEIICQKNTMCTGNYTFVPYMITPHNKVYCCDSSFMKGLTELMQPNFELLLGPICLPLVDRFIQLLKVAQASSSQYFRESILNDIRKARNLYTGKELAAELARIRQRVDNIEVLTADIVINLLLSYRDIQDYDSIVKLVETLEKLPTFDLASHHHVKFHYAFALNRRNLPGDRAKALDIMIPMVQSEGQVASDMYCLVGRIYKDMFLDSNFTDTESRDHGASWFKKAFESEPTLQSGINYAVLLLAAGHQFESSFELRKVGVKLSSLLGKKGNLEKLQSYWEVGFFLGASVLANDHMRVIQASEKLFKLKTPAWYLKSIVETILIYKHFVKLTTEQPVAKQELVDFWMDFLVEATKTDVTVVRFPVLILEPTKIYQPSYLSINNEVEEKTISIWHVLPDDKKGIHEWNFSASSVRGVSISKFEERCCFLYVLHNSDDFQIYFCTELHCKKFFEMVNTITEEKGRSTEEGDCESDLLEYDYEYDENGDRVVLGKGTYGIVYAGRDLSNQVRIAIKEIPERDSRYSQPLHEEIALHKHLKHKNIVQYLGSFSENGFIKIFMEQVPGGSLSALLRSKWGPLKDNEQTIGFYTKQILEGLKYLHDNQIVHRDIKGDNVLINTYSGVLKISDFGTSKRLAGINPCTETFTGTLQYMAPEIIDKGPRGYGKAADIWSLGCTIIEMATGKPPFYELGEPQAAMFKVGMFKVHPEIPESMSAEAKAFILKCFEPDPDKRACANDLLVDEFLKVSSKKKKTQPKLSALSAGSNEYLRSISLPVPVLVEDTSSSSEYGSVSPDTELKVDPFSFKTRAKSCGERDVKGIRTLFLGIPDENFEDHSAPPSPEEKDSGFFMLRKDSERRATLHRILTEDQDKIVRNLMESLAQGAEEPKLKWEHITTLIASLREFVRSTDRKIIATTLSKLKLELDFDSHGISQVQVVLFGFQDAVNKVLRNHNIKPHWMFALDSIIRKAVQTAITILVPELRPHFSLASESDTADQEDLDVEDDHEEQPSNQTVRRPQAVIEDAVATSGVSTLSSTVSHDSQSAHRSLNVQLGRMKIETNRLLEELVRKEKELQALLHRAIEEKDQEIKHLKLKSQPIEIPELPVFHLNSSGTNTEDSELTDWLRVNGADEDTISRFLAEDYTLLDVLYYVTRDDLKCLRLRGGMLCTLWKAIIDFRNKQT
Text: (§1) The protein kinase complement of the human genome (the kinome) was described previously (Manning et al., 2002. Science 298(5600):1912-1934). Sequence accession numbers are defined by the International Protein Index (IPI) (Kersey et al., 2004. Proteomics 4(7):1985-1988).

kinases (kinome) [2] = molecular target: T2, kinases (kinome) (Homo sapiens, UniProt O75676); conditions: MSK2 (AGC), IPI00022536
T2 construct: determined in kinobeads assays with mass spectrometry detection of kinases as described previously; endogenous in cells; host or cells: cell lysate
T2 sequence (O75676 whole entry): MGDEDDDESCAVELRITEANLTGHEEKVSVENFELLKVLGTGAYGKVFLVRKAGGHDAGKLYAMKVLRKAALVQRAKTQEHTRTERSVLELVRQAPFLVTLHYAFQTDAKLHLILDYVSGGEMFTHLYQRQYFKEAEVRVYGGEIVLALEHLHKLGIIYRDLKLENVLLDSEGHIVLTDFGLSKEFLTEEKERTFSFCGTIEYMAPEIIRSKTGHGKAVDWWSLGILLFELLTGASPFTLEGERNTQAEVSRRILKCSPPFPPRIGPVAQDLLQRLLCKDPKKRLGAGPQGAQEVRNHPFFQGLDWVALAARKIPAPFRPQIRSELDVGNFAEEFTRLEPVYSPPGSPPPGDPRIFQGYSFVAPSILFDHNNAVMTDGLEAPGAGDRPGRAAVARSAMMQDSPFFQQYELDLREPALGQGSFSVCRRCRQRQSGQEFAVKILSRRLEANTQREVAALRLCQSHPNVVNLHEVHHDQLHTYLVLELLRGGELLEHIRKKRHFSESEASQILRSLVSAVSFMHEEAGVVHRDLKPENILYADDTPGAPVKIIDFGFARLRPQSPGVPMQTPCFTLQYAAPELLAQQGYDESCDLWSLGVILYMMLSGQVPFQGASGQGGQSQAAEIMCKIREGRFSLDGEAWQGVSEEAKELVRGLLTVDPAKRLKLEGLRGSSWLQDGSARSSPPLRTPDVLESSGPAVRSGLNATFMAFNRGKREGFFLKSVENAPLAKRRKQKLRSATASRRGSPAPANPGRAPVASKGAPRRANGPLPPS
Text: as §1

kinases (kinome) [3] = molecular target: T3, kinases (kinome) (Homo sapiens, UniProt Q13188); conditions: MST2 (STE), IPI00411984
T3 construct: determined in kinobeads assays with mass spectrometry detection of kinases as described previously; endogenous in cells; host or cells: cell lysate
T3 sequence (Q13188 1-491): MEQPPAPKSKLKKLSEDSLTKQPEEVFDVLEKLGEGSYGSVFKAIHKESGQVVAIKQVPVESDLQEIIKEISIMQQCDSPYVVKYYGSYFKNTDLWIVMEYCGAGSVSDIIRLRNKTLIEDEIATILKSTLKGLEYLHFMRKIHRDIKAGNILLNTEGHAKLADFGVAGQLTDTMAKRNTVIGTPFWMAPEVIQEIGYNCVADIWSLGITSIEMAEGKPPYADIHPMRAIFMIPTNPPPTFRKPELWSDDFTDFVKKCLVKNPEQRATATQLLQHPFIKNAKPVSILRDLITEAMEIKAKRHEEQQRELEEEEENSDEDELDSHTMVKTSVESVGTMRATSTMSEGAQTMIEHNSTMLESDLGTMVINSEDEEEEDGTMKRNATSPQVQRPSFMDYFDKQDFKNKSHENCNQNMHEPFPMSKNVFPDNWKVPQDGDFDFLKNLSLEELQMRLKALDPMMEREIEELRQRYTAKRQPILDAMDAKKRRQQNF
Text: as §1

Structure (SMILES) | IC50 (kinases (kinome) [1]) | IC50 (kinases (kinome) [2]) | IC50 (kinases (kinome) [3])
C[C@H]1COCCN1c1nc(-c2ccc(NC(=O)NC3CC3)cc2)cc(-c2ccccc2S(C)(=O)=O)n1 [Example 4, (S)-1-cyclopropyl-3-(4-(2-(3-methylmorpholino)-6-(2-(methylsulfonyl)phenyl)pyrimidin-4-yl)phenyl)urea] | > 10 µM | – | –
C[C@H]1COCCN1c1nc(-c2ccc(NC(=O)N[C@H]3CCC[C@@H]3O)cc2)cc(-c2cc(F)ccc2S(C)(=O)=O)n1 [Example 76, 1-(4-(6-(5-fluoro-2-(methylsulfonyl)phenyl)-2-((S)-3-methylmorpholino)pyrimidin-4-yl)phenyl)-3-((1S,2S)-2-hydroxycyclopentyl)urea] | > 10 µM | – | –
C[C@H]1COCCN1c1nc(-c2ccc(NC(=O)NC3CC3)cc2)cc(-c2cccnc2S(C)(=O)=O)n1 [Example 46, (S)-1-cyclopropyl-3-(4-(2-(3-methylmorpholino)-6-(2-(methylsulfonyl)pyridin-3-yl)pyrimidin-4-yl)phenyl)urea] | – | > 10 µM | > 10 µM
C[C@H]1COCCN1c1cc(-c2ccccn2)nc(-c2ccc(NC(=O)NCCO)cc2)n1 [Example 43, (S)-1-(2-hydroxyethyl)-3-(4-(4-(3-methylmorpholino)-6-(pyridin-2-yl)pyrimidin-2-yl)phenyl)urea] | – | > 10 µM | > 10 µM
C[C@H]1COCCN1c1nc(-c2ccc(NC(=O)NC3CC3)cc2)cc(-c2cc(F)ccc2S(C)(=O)=O)n1 [Example 40, (S)-1-cyclopropyl-3-(4-(6-(5-fluoro-2-(methylsulfonyl)phenyl)-2-(3-methylmorpholino)pyrimidin-4-yl)phenyl)urea] | > 10 µM | > 10 µM | > 10 µM
